Results: ChEMBL document CHEMBL5375983, “Discovery of YSR734: A Covalent HDAC Inhibitor with Cellular Activity in Acute Myeloid Leukemia and Duchenne Muscular Dystrophy” (J Med Chem, 2023)
Activity calls are given as the source filed them. The rule behind the calls is not given here.

Experiments:
[1] = Cmax in CD-1 mouse at 10 mg/kg, ip measured upto 12 hrs by LC-MS/MS analysis; format: ADME, organism-based; set-up: time < 12 hrs, dose 10 mg/kg, route ip; conditions: in vivo
[2] = Glutathione reactivity assessed as compound consumption at 500 nM incubated for 16 hrs by LC-MS/MS analysis; format: ADME; conditions: glutathione solution, read-out: Drug metabolism
[3] = system: MV4-11; test: Induction of apoptosis in human MV4-11 cells assessed as late apoptotic cells at 4 uM measured after 6 hrs by annexin V-FITC/PI staining based FACS assay (reference value: 16.21%); format: functional
[4] = MRT in CD-1 mouse at 10 mg/kg, ip measured upto 12 hrs by LC-MS/MS analysis; format: ADME, organism-based; conditions: in vivo
[5] = system: MV4-11; test: Induction of apoptosis in human MV4-11 cells assessed as healthy cells at 4 uM measured after 6 hrs by annexin V-FITC/PI staining based FACS assay (reference value: 63.50%); format: functional
[6] = Half life in CD-1 mouse at 10 mg/kg, ip measured upto 12 hrs by LC-MS/MS analysis; format: ADME, organism-based; conditions: in vivo
[7] = system: MV4-11; test: Cytotoxicity against human MV4-11 cells assessed as inhibition of cell growth incubated for 72 hrs by celltiter-blue viability assay; format: functional, cell-based; conditions: MV4-11, 72 h
[8] = system: MV4-11; test: Induction of apoptosis in human MV4-11 cells assessed as late apoptotic cells at 1 uM measured after 6 hrs by annexin V-FITC/PI staining based FACS assay (reference value: 16.21%); format: functional
[9] = Cytotoxicity against human MRC9 cells assessed as inhibition of cell growth incubated for 72 hrs by celltiter-blue viability assay; format: toxicity, cell-based
[10] = AUCinfinity in CD-1 mouse at 10 mg/kg, ip measured upto 12 hrs by LC-MS/MS analysis; format: ADME, organism-based; set-up: time < 12 hrs, dose 10 mg/kg, route ip; conditions: in vivo
[11] = Stability in human whole blood assessed as half life at 100 uM measured upto 40 mins by LC-MS/MS analysis; format: ADME, tissue-based
[12] = system: RS4-11; test: Cytotoxicity against human RS4-11 cells assessed as inhibition of cell growth incubated for 72 hrs by celltiter-blue viability assay; format: functional, cell-based; conditions: RS4-11, 72 h
[13] = molecular target: T1, Histone deacetylase 11 (Homo sapiens, UniProt Q96DB2); test: Inhibition of full length recombinant human HDAC11 expressed in Sf9 cells using 6-carboxyfluorescein peptide as substrate preincubated with compound for 6 hrs followed by substrate addition and measured after 17 hrs by electrophoretic mobility shift assay
T1 sequence (Q96DB2 whole entry): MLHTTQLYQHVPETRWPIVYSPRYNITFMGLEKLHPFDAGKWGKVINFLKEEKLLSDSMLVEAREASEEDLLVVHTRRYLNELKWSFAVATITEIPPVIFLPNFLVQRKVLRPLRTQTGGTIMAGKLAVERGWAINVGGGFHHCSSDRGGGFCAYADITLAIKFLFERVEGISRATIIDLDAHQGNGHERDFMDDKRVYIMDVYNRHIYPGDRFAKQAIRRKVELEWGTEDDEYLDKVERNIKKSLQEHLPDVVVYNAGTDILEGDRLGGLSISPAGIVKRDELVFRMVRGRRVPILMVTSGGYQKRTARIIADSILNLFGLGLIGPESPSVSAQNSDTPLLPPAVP

[14] = system: MV4-11; test: Induction of apoptosis in human MV4-11 cells assessed as healthy cells at 1 uM measured after 6 hrs by annexin V-FITC/PI staining based FACS assay (reference value: 63.50%); format: functional
[15] = Tmax in CD-1 mouse at 10 mg/kg, ip measured upto 12 hrs by LC-MS/MS analysis; format: ADME, organism-based; conditions: in vivo
[16] = molecular target: T2, Histone deacetylase 1 (Homo sapiens, UniProt Q13547); test: Inhibition of HDAC1 (unknown origin) using 6-carboxyfluorescein peptide as substrate preincubated with compound followed by substrate addition by electrophoretic mobility shift assay
T2 sequence (Q13547 whole entry): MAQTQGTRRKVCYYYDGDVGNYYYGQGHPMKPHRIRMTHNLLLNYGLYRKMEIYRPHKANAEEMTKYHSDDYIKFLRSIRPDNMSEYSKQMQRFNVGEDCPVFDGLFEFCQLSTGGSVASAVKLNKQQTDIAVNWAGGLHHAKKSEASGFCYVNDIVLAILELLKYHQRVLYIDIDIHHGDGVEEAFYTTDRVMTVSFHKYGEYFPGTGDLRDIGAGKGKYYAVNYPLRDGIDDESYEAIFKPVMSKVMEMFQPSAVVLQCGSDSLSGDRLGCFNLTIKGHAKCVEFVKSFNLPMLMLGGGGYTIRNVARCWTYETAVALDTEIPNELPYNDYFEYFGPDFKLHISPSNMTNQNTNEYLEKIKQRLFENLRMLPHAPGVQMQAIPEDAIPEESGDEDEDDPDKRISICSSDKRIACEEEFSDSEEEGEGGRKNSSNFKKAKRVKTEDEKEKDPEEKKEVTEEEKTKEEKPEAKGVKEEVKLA

[17] = Selectivity index, ratio of IC50 for cytotoxicity against human MRC9 cells to IC50 for cytotoxicity against human MV4-11 cells
[18] = molecular target: T3, Histone deacetylase 2 (Homo sapiens, UniProt Q92769); test: Inhibition of HDAC2 (unknown origin) using 6-carboxyfluorescein peptide as substrate preincubated with compound for 6 hrs followed by substrate addition by electrophoretic mobility shift assay
T3 sequence (Q92769 whole entry): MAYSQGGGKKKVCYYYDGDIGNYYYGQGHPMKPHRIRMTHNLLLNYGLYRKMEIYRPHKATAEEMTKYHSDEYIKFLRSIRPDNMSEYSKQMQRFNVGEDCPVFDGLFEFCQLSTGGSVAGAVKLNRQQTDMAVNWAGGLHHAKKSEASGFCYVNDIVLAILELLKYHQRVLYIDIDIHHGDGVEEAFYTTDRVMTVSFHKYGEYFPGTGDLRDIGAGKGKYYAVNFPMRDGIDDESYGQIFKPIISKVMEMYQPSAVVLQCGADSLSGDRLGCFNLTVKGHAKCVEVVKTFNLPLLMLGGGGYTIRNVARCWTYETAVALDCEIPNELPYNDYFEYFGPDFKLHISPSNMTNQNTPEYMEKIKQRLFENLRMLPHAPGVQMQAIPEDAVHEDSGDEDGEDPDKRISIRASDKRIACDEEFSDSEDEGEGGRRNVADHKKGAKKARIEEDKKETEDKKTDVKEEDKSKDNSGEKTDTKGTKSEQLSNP

[19] = molecular target: T3, Histone deacetylase 2; test: Inhibition of HDAC2 (unknown origin) using 6-carboxyfluorescein peptide as substrate preincubated with compound followed by substrate addition by electrophoretic mobility shift assay
[20] = molecular target: T3, Histone deacetylase 2; test: Inhibition of HDAC2 (unknown origin) using 6-carboxyfluorescein peptide as substrate preincubated with compound for 2 hrs followed by substrate addition by electrophoretic mobility shift assay
[21] = molecular target: Histone deacetylase 1/2/3 (Homo sapiens) (UniProt Q13547+O15379+Q92769); test: […] binding affinity to HDAC1/2/3 in human MV4-11 cells assessed as increase in Ac-histone-H3 level at […] incubated for 6 hrs followed by compound washout and measured after 16 hrs by Western blot analysis; format: cell-based; conditions: dose 2.5 µM
[22] = Glutathione reactivity assessed as compound consumption at 500 nM measured after 1 to 3 hrs by LC-MS/MS analysis; format: ADME; conditions: glutathione solution, time 1-3 hrs, read-out: Activity
[23] = molecular target: T3, Histone deacetylase 2; test: Binding affinity to recombinant full length HDAC2 catalytic domain Cys274 (unknown origin) assessed as formation of single covalent adduct at 50 uM incubated for 2 hrs by trypsin-digest protein mapping analysis
[24] = molecular target: T4, Histone deacetylase 3 (Homo sapiens, UniProt O15379); test: Inhibition of full length recombinant human HDAC3 expressed in Sf9 cells using 6-carboxyfluorescein peptide as substrate preincubated with compound for 2 hrs followed by substrate addition and measured after 3 hrs by electrophoretic mobility shift assay; format: cell-based
T4 sequence (O15379 whole entry): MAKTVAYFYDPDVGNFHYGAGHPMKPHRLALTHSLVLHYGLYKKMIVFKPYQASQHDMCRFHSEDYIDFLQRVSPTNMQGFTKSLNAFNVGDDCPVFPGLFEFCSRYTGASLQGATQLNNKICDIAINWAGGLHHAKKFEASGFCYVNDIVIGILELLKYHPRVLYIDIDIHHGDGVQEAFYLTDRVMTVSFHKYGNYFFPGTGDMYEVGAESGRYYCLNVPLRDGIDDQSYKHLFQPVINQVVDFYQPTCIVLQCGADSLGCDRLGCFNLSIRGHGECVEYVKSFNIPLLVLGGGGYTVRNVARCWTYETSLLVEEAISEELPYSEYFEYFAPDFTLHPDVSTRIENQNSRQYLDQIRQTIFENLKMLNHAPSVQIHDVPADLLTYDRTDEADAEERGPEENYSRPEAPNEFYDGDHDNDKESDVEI

[25] = molecular target: T2, Histone deacetylase 1; test: Inhibition of HDAC1 (unknown origin) using 6-carboxyfluorescein peptide as substrate preincubated with compound for 6 hrs followed by substrate addition by electrophoretic mobility shift assay
[26] = molecular target: T4, Histone deacetylase 3; test: Inhibition of full length recombinant human HDAC3 expressed in Sf9 cells using 6-carboxyfluorescein peptide as substrate preincubated with compound followed by substrate addition and measured after 3 hrs by electrophoretic mobility shift assay; format: cell-based
[27] = molecular target: T4, Histone deacetylase 3; test: Inhibition of full length recombinant human HDAC3 expressed in Sf9 cells using 6-carboxyfluorescein peptide as substrate preincubated with compound for 6 hrs followed by substrate addition and measured after 3 hrs by electrophoretic mobility shift assay; format: cell-based
[28] = molecular target: T5, Histone deacetylase 8 (Homo sapiens, UniProt Q9BY41); test: Inhibition of full length recombinant human HDAC8 expressed in Sf9 cells using 6-carboxyfluorescein peptide as substrate preincubated with compound followed by substrate addition and measured after 3 hrs by electrophoretic mobility shift assay
T5 sequence (Q9BY41 whole entry): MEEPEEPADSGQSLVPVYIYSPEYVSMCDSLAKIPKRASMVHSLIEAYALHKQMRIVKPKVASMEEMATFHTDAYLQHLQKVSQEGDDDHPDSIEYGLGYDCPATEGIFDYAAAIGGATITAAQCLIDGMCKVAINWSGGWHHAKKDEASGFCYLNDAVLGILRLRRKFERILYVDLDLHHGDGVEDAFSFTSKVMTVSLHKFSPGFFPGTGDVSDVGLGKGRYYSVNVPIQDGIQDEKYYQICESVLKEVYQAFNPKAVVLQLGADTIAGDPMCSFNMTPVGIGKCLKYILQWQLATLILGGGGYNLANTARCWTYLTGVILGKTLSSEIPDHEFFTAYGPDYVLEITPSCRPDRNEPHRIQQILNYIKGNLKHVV

SMILES | IC50 [7] [nM] | IC50 at 72 h [9] [nM] | IC50 [12] [nM] | IC50 [16] [nM] | Ratio IC50 [17] | IC50 [18] [nM] | IC50 [19] [nM] | IC50 [20] [nM] | also measured
Nc1ccccc1NC(=O)c1ccc(CNC(=O)OCc2cccnc2)cc1 [ENTINOSTAT] | 710 | 10200 | 300 |  |  |  |  |  | Cmax [1]: 6250 ng/mL; degraded at 16 h, 0.5 µM [2]: < 10%; Activity [3]: 30.45%; MRT [4]: 57.6 min; Activity [5]: 40.57%; half-life [6]: 191 min; Activity [8]: 23.15%; AUC(0-inf) [10]: 5260 ng·h/mL; half-life at 100 µM [11]: 45 min; IC50 [13]: > 1000 nM; Activity [14]: 53.43%; Tmax [15]: 15 min
Nc1ccccc1NC(=O)c1ccc(CNC(=O)OC2CCN(S(=O)(=O)CCl)CC2)cc1 | 1380 | 15900 | 720 | 369 | 12 | 200 | > 1000 | 517 | 
C=CC(=O)N1CCC[C@@H](n2nc(-c3ccc(Oc4ccccc4)cc3)c3c(N)ncnc32)C1 [IBRUTINIB] |  |  |  |  |  |  |  |  | half-life at 100 µM [11]: 64 min
Nc1ccccc1NC(=O)c1ccc(CNC(=O)OC2CCN(S(=O)(=O)c3c(F)c(F)cc(F)c3F)CC2)cc1 |  |  |  |  |  |  |  |  | Activity [21]: Active
CN(C)C/C=C/C(=O)N1CCC(OC(=O)NCc2ccc(C(=O)Nc3ccccc3N)cc2)CC1 | 1800 | 31200 | 1240 | 200 | 17 | 180 | 808 | 295 | 
Nc1ccccc1NC(=O)c1ccc(CNC(=O)OC2CCN(C(=O)CCl)CC2)cc1 |  |  |  | > 1000 |  | 720 | > 1000 | > 1000 | degraded at 0.5 µM [22]: > 50%
C=CS(=O)(=O)N1CCC(OC(=O)NCc2ccc(C(=O)Nc3ccccc3N)cc2)CC1 |  |  |  | 445 |  | 380 | > 1000 | 919 | Activity [23]: Active; degraded at 0.5 µM [22]: > 50%
Nc1ccccc1NC(=O)c1ccc(CNC(=O)OC2CCCCC2)cc1 | 1070 | 10900 | 620 | 903 | 10 | 274 | > 1000 | 490 | IC50 [24]: 73 nM; Cmax [1]: 2700 ng/mL; degraded at 16 h, 0.5 µM [2]: < 10%; IC50 [25]: 64 nM; half-life [6]: 311 min; IC50 [26]: 273 nM; IC50 [27]: 36 nM; AUC(0-inf) [10]: 1810 ng·h/mL; IC50 [28]: > 10000 nM; Tmax [15]: 4.8 min
C=CC(=O)N1CCC(OC(=O)NCc2ccc(C(=O)Nc3ccccc3N)cc2)CC1 | 2320 | 21600 | 1530 | 592 | 9 | 379 | > 1000 | 861 | 
C#CC(=O)N1CCC(OC(=O)NCc2ccc(C(=O)Nc3ccccc3N)cc2)CC1 |  |  |  | 665 |  | 328 | > 1000 | 759 | degraded at 0.5 µM [22]: > 50%
C=C=CC(=O)N1CCC(OC(=O)NCc2ccc(C(=O)Nc3ccccc3N)cc2)CC1 |  |  |  | 685 |  | 393 | > 1000 | 823 | 
